The source of these data is PMC4520450, “Procyanidins Negatively Affect the Activity of the Phosphatases of Regenerating Liver” (PLoS ONE, 2015).

The subject of one data set is Caco-2 cell model. Also noted: method as in PMID 23885956. The conditions noted are these: within 24h; cited from earlier work.
Data set [1] has as its system PRL-3 overexpressing HEK293 cell line. Briefly: Transwell cell migration assay. Format: cell-based. The conditions noted are these: 16 h, PRL-3 overexpressing cells. As for the experimental part: (§1) To study if procyanidin C2 is able to inhibit PRL-1 and PRL-3 in cells, HEK293 cells were treated in a wound-healing assay (see the experimental procedures). […] As a control the empty vector cell line was again utilized. […] The migration speed was for all cell lines similar when treated with 50 μM of 9. To further corroborate these findings we performed additionally a transwell assay as an alternative way to study cell migration.
(§2) Fig 6 Wound healing abilities of PRL-1 or PRL-3 overexpressing or empty vector control HEK293 cell lines were analyzed in the presence of compound 9 or medium only. Cells were seeded at a concentration of 800,000 cells per insert and procyanidin C2 (9) was added at a concentration of 25 and 50 μM. A) Pictures of the wound gaps were taken at 0 h and 7 h for both conditions (with and without treatment). B) Quantification of the wound healing experiment. Speed of migration is shown for combined data from different replicates, as mean ± SD (n = 38–88). Two-sided t-tests with Welsh correction were performed for p < 0.05. ns = not significant;***: < 0.001; **: < 0.01; *: < 0.05. C) Effect of polyphenolic compounds in a transwell assay on the cell migration of HEK293 empty vector and PRL-3 overexpressing cell lines. Cells were seeded at a concentration of 100,000 cells per insert and procyanidin C2 (9) was added at a final concentration of 25 and 50 μM. Migration was allowed for 16 h before harvesting and staining with calcein AM for fluorescent readout. Mean ± SD (n = 60–72) is shown for combined data from different replicates. Two-sided t-tests with Welsh correction were performed for p < 0.05. ns = not significant. D) Quantification of wound healing experiment including blocking PRL-1 and PRL-3 with analog 3. Speed of migration is shown for combined data from different replicates, as mean ± SD (n = 63–82). Two-sided t-tests with Welsh correction were performed for p < 0.05.
(§3) HEK293 empty vector, PRL-1 and PRL-3 overexpressing cells were kept in selection medium (DMEM medium without Phenol red, supplemented with 10% FBS, 1% glutamine and 0.2% hygromycin and blasticidin) for one week until full confluency. Then, 0.1% tetracycline (1 mg/ml stock solution in ethanol) was added for induction of PRL-1 and PRL-3 expression in HEK293 PRL-1 and HEK PRL-3 wt 24 h prior plating on transwell inserts. For comparison, HEK293 empty vector was also treated with tetracycline. After 24 h, the medium was removed, cells were washed with PBS and starvation medium supplemented with 0.1% tetracycline was added. […] Then, 3x100 μL were taken from each well and transferred to a black assay plates and the relative concentration of the fluorescent product formed in the cells was determined by following the emission at 520 nm with excitation at 452 nm. […]

Data set [2] deals with HEK293 empty vector cell line. In words: Transwell cell migration assay. Format: cell-based. The conditions noted are these: 16 h, empty vector cells. The procedure: as §1, §2, §3

Take `Oc1cc(O)c2c(c1)O[C@H](c1ccc(O)c(O)c1)[C@@H](O)[C@@H]2c1c(O)cc(O)c2c1O[C@H](c1ccc(O)c(O)c1)[C@@H](O)C2` [Procyanidin B3 (8), Procyanidin B3]: in the data set with Caco-2 cell model, the permeation result is on record as “up to 0.2%”.
For `Oc1cc(O)c2c(c1)O[C@H](c1ccc(O)c(O)c1)[C@@H](O)[C@@H]2c1c(O)cc(O)c2c1O[C@H](c1ccc(O)c(O)c1)[C@@H](O)[C@@H]2c1c(O)cc(O)c2c1O[C@H](c1ccc(O)c(O)c1)[C@@H](O)C2` [Procyanidin C2 (9), Procyanidin C2], the “cell migration, transwell” value in data set [1] (25 μM) was “did not lead to a significant change in cell migration”; in data set [1] (50 μM), “significant decrease in migration”; in data set [2] (25 μM), “did not lead to a significant change in cell migration”; in data set [2] (50 μM), “significant increase in cell migration”.
